Experimental data taken from patent publication US20190008837A1, “OPHTHALMIC COMPOSITIONS AND ASSOCIATED METHODS” (University of Utah Research Foundation, priority 2016, published 2019).

Tested on: cornea neuron fibers of scratched corneas
Test: Cornea scratch model, cornea neuron regeneration on flatmounts (Example 1)
Assay type: in vivo, mice
Details: eye drops 3 times per day for 5 days, corneas harvested on the 7th day, beta III tubulin staining
Protocol: Nine mice were divided into three treatment groups having three mice each. The corneas of each of the mice in each of the groups were scratched. The control group was administered a standard blank (e.g. pacebo) composition. The first treatment group received pergolide. The second treatment group received cabergoline. Each of the eye drops was applied 3 times per day for 5 days. The corneas were harvested on the 7th day. The corneas were then fixed in acetone for 1 hour at room temperature and then blocked in 3% BSA for 1 hour. The cornea flatmounts were stained with primary antibody, anti-beta III tubulin antibody (rabbit polyclonal, ab18207) at 1:200 in 3% BSA blocking buffer overnight at 4° C. After washing 3 times for 10 minutes, each of the cornea flatmounts were incubated with secondary antibody (goat anti rabbit, Invitrogen Alexa Fluor 555) at 1:200 in 3% BSA for 1 hour at room temperature. The flatmounts were again washed 3 times for 10 minutes each. Images of the cornea neuron fibers were taken and analyzed under EVOS microscopy.

**Q.** How did the “cornea neuron regeneration compared to the blank control group” value turn out when C=CCN1C[C@H](C(=O)N(CCCN(C)C)C(=O)NCC)C[C@@H]2c3cccc4[nH]cc(c34)C[C@H]21 [cabergoline] was run?
**A.** no neuron regeneration
